Data: patent publication US8227510B2, “Combine use of pterostilbene and quercetin for the production of cancer treatment medicaments” (Universitat de Valencia, priority 2004, dated 2012)
Marks after values point to notes of the source that are not given here.

Assays:
[1] = Extravascular (tissue) levels after intravenous administration in mice; type: in vivo; set-up: unit not given here; settings: 20 mg/kg i.v.
Description: For the pharmacokinetic studies and for the daily treatment, the mice were administered i.v. (via the jugular vein, where a permanent catheter had previously been fixed by surgical methods; i.v. administration was carried out slowly for 1 minute), and orally (via stomach tube), 20 mg/kg of t-PTER (dissolved in ethanol 0.5 ml/kg of animal weight) or QUER (dissolved in dimethylsulfoxide:saline, 1:0.5 0.15 ml/kg of weight). In general, the compositions based on a combination of PTER and QUER can contain, as excipients, those stated previously or any others that are pharmaceutically acceptable. The presentation of said compositions can be, non-limitatively, in the form of solids such as tablets, capsules, pellets, pills, etc. and liquid presentations such as drops, syrups, injectables, etc. Moreover, the active principles (PTER and QUER) of the composition can be in their uncombined forms or in the form of pharmaceutically acceptable salts, including esters. The t-PTER was synthesized in our laboratory following standardized reactions of Wittig and Heck (www.orgsyn.org), whereas the QUER was obtained from Sigma Chemical Co. (San Luis, Mo., USA). The ^3H-t-PTER (2.2 Ci/mmol), labeled in the ortho and para positions of the benzene rings, was prepared in our laboratory according to a method similar to that used for the deuteration of phenols (18). ^14C-QUER (50 mCi/mmol), labeled in position 4 of the carbon ring, was obtained from the NCI Radiochemical Carcinogen Repository of Chemsyn Laboratories (Kansas City, Mo., USA). The radioactivity was measured using a Varisette 2700 TR analyzer from Packard. Blood was collected by means of the catheter in 1-ml syringes that contained heparin sodium (0.05 ml of a 5% solution in […]). The plasma and the erythrocytes were separated as described previously (19).
To supplement the pharmacokinetics in plasma/blood, we also evaluated the bioavailability of PTER and QUER in extravascular tissues. […] Therefore, it appears that neither of the polyphenols is subject to extravascular accumulation and that their presence in various tissues (Table 2) is parallel in time to their bioavailability in the bloodstream (FIG. 1).
The animals were treated with t-PTER or QUER (20 mg/kg, containing 5 μCi of ^3H-t-PTER or 2 μCi ^14C-QUER). A group of 4-5 mice was sacrificed at each time point. Not detectable=n.d. *P<0.01 comparing the data obtained at 10-60 minutes with the data found 5 minutes after administration of the polyphenol.

B16M-F10 [2] = experiment: Survival of mice carrying B16M-F10 metastases; type: in vivo; settings: for Survival of the carrier: B16M-F10, 20 mg/kg i.v. daily, none 13 ± 2
Description: (§1) Hepatic metastases were induced by i.v. inoculations (portal vein), in anesthetized mice (Nembutal, 50 mg/kg i.p.), of 4×10^5 viable B16M-F10 cells suspended in 0.2 ml of DMEM. The mice were sacrificed by cervical dislocation 10 days after inoculation. The livers were fixed by immersion for 24 hours at 22° C. in 10% formaldehyde in PBS (pH 7.4), and were subsequently embedded in paraffin. The density of metastases (average number of foci/100 mm^3 of liver detected in fifteen sections of 10×10 mm^2 per liver) and the volume of metastases (average percentage of liver volume occupied by metastases) were determined as described previously (22).
This methodology makes it possible for the effect of PTER and QUER to be studied in vivo. For this purpose, mice were inoculated with B16M-F10 control cells or B16M-F10/Tet-Bcl-2 which overexpressed Bcl-2. Both subgroups of cells were cultivated beforehand in the absence or in the presence of t-PTER and QUER. B16M-F10 cells were cultivated for 72 hours. t-RESV (12 μM), t-PTER (40 μM), and QUER (20 μM) were added at 6, 30 and 54 hours of culture time, and were present in each case for just 60 minutes. Then they were removed from the culture flasks by washing (3 times with PBS) and the medium was renewed. The levels of Bcl-2 in the B16M-F10 control cells and cells treated with Tet-Bcl-2 were 24±5 and 105±14 units/mg of protein, respectively (n=5 in each case, P<0.01). The number of adhering cells shown in the table was calculated at 60 minutes postinjection (no significant differences were found when the measurements were effected at 30, 120, 180, 240 or 360 minutes postinjection, data not shown). The number of intact cells was calculated at 6 hours postinjection. […] The growth of metastases in the liver was evaluated as stated in the corresponding section of the description, and in this case the mice were treated daily (×10 days) with t-PTER and/or QUER (20 mg/kg of body weight) administered i.v. (the data are mean values±SD corresponding to 25 mice per group). […]

B16M-F10 cells = experiment: Levels of free polyphenols in the incubation medium of B16M-F10 cultures; type: in vitro ADME; settings: throughout the culture time
B16M-F10 [3] = experiment: Growth of hepatic metastases of B16M-F10 in mice; type: in vivo; settings: 20 mg/kg i.v. daily x10 days; for Volume of metastases: none 22 ± 4; for Density of metastases: none 27 ± 5
Description: as §1
(§2) This methodology makes it possible for the effect of PTER and QUER to be studied in vivo. For this purpose, mice were inoculated with B16M-F10 control cells or B16M-F10/Tet-Bcl-2 which overexpressed Bcl-2. Both subgroups of cells were cultivated beforehand in the absence or in the presence of t-PTER and QUER. B16M-F10 cells were cultivated for 72 hours. t-RESV (12 μM), t-PTER (40 μM), and QUER (20 μM) were added at 6, 30 and 54 hours of culture time, and were present in each case for just 60 minutes. Then they were removed from the culture flasks by washing (3 times with PBS) and the medium was renewed. The levels of Bcl-2 in the B16M-F10 control cells and cells treated with Tet-Bcl-2 were 24±5 and 105±14 units/mg of protein, respectively (n=5 in each case, P<0.01). The number of adhering cells shown in the table was calculated at 60 minutes postinjection (no significant differences were found when the measurements were effected at 30, 120, 180, 240 or 360 minutes postinjection, data not shown). The number of intact cells was calculated at 6 hours postinjection. The experimental microscopy data in vivo are mean values±SD corresponding to 4-5 different experiments. The growth of metastases in the liver was evaluated as stated in the corresponding section of the description, and in this case the mice were treated daily (×10 days) with t-PTER and/or QUER (20 mg/kg of body weight) administered i.v. (the data are mean values±SD corresponding to 25 mice per group). A similar method and equal number of mice per group were used for evaluating the survival of the carrier animals. The test of significance relates, in all the groups, to comparison between cases with PTER and/or QUER and cases without additions (*P<0.05 and **P<0.01), and to comparison between the B16M-F10/Tet-Bcl-2 cells with the B16M-F10 control cells (^+P<0.05, ^++P<0.01). […] This is the first time that the combined administration in vivo of natural polyphenols has induced inhibition of metastatic growth of a highly malignant tumor and an increase in the survival of the carrier.

Bcl-2 = experiment: Intracellular levels of Bcl-2 in B16M-F10 cells (enzyme immunoassay); type: cell-based, mouse; settings: t-PTER 40 μM, QUER 20 μM, 60 minutes at 6, 30 and 54 hours, none 35 ± 5
From the text: The Tet-off gene expression system (Clontech, Palo Alto, Calif., USA) was used for inserting the mouse bcl-2 gene and transfecting the B16M-F10 cells, as described previously (26) and following the manufacturer's instructions. The protein Bcl-2 was quantified in the soluble cytosolic fraction by enzyme immunoassay (27) using a test based on a monoclonal antibody from Sigma (San Luis, Mo., USA) (a Bcl-2 unit was defined as the amount of Bcl-2 protein in 1000 non-transfected B16M-F10 cells).
This methodology makes it possible for the effect of PTER and QUER to be studied in vivo. For this purpose, mice were inoculated with B16M-F10 control cells or B16M-F10/Tet-Bcl-2 which overexpressed Bcl-2. […] The number of adhering cells shown in the table was calculated at 60 minutes postinjection (no significant differences were found when the measurements were effected at 30, 120, 180, 240 or 360 minutes postinjection, data not shown). The number of intact cells was calculated at 6 hours postinjection. […] The growth of metastases in the liver was evaluated as stated in the corresponding section of the description, and in this case the mice were treated daily (×10 days) with t-PTER and/or QUER (20 mg/kg of body weight) administered i.v. (the data are mean values±SD corresponding to 25 mice per group). […]

B16M-F10/Tet-Bcl-2 = experiment: Growth of hepatic metastases of B16M-F10/Tet-Bcl-2 in mice; type: in vivo; settings: 20 mg/kg i.v. daily x10 days; for Volume of metastases: none 25 ± 6; for Density of metastases: none 29 ± 5
Description: as §1, §2

Row | Structure (SMILES) | Extravascular level, Brain ([1]; 5 min) | Extravascular level, Kidney ([1]; 5 min) | Extravascular level, Liver ([1]; 5 min) | Extravascular level, Lung ([1]; 5 min) | Extravascular level, Brain ([1]; 10 min) | Extravascular level, Kidney ([1]; 10 min) | Extravascular level, Liver ([1]; 10 min) | Extravascular level, Lung ([1]; 10 min) | Extravascular level, Liver ([1]; 30 min) | Extravascular level, Lung ([1]; 30 min) | Survival of the carrier (B16M-F10 [2]) | total levels of free polyphenols in the incubation medium (metabolism by cancer cells) (B16M-F10 cells) | Volume of metastases (B16M-F10 [3]) | Density of metastases (B16M-F10 [3]) | Intracellular levels of Bcl-2 before inoculation (Bcl-2) | Volume of metastases (B16M-F10/Tet-Bcl-2) | Density of metastases (B16M-F10/Tet-Bcl-2) | other results
1 | COc1cc(/C=C/c2ccc(O)cc2)cc(OC)c1 [PTER, pterostilbene] | 5 ± 1 | 3 ± 1 | 14 ± 4 | 36 ± 6 | 2 ± 0.5* | 3 ± 0.3 | 7 ± 1* | 15 ± 3* | 3 ± 0.5* | 6 ± 1* | 15 ± 2 days | remained unchanged | 14 ± 4** percentage of liver volume | 18 ± 4** number of foci/100 mm^3 | 21 ± 4** units/mg protein | 15 ± 3** percentage of liver volume | 15 ± 3** number of foci/100 mm^3 | Extravascular level, Kidney ([1]; 30 min): 2 ± 0.4*; Extravascular level, Kidney ([1]; 60 min): 1 ± 0.3*; Extravascular level, Lung ([1]; 60 min): 2 ± 1*
2 | O=c1c(O)c(-c2ccc(O)c(O)c2)oc2cc(O)cc(O)c12 [QUER, quercetin] | 4 ± 1 | 1 ± 0.2 | 9 ± 3 | 15 ± 3 | 2 ± 0.4* | 1 ± 0.5 | 3 ± 1*^ | 8 ± 2* | 1 ± 0.2* | 2 ± 0.6* | 15 ± 1 days | remained unchanged | 12 ± 3** percentage of liver volume | 15 ± 4** number of foci/100 mm^3 | 9 ± 3** units/mg protein | 24 ± 5^++ percentage of liver volume | 26 ± 516^++ number of foci/100 mm^3 | effect on survival of the carrier host (B16M-F10 [2]; B16M-F10 control cells, daily i.v. administration): neither of these compounds significantly increased the survival
